36 compounds from patent US20240279201A1, “DUAL WNT SIGNALING PATHWAY INHIBITORS AND AMPK ACTIVATORS FOR TREATMENTS OF DISEASE” (priority 2021, published 2024) can be followed below.

Data set [1] concerns Wnt/β-Catenin signaling pathway. Nature of the data set: Wnt signaling luciferase (TOPflash) reporter gene assay. The settings on record: for IC50: luciferase reporter gene assay, mean of three independent experiments, read-out: IC50 (nM) to inhibit the Wnt signaling activity. In kind it is cell-based. The source says:
A dual-luciferase gene reporter assay was used to test inhibitory activities of new compounds on Wnt signaling. […] Therefore, the effects of new compounds on AMPK was examined. […]
In general terms: A reporter such as luciferase makes a cellular process visible.

Data set [2] is described as follows: Cytotoxicity (CC50) during the luciferase gene reporter assay. In kind it is cell-based. Particulars: human, HEK293 cells; short treatment duration of the luciferase gene reporter assay.

Usually IC50 stands for the concentration that inhibits the measured activity by half. The CC50 is the concentration at which the toxic effect on the cells reaches its halfway point. The term inhibition denotes the relative decrease from the control value, in per cent.

As for `O=C(Nc1ccc2ccccc2n1)c1nnn(-c2ccccc2Cl)n1` [YA70033, 2-(2-Chlorophenyl)-N-(quinolin-2-yl)-2H-tetrazole-5-carboxamide], in data set [1], the IC50 is more than 1000 nM. In addition, the CC50 in data set [2] was more than 92 µM.
Take `Cc1ccccc1-n1nnc(C(=O)Nc2ncc3ccccc3n2)c1C` [YA6061, 5-Methyl-N-(quinazolin-2-yl)-1-(o-tolyl)-1H-1,2,3-triazole-4-carboxamide]: the IC50 in data set [1] is more than 1000 nM. Moreover, the half-maximal cytotoxic concentration (CC50) in data set [2] is more than 92 µM.
The matching figures for `Cc1ccccc1-n1ncc(C(=O)Nc2nc(-c3ccccc3)cs2)c1C` [YA7015, 5-Methyl-N-(4-phenylthiazol-2-yl)-1-(o-tolyl)-1H-pyrazole-4-carboxamide]: more than 1000 nM and more than 92 µM.
The matching figures for `Cc1ccccc1-n1nnc(C(=O)Nc2ccc3cnccc3c2)c1C` [YA61692, N-(Isoquinolin-6-yl)-5-methyl-1-(o-tolyl)-1H-1,2,3-triazole-4-carboxamide]: more than 1000 nM and more than 92 µM.
Consider `CC(C)c1c(C(=O)Nc2nc3ccccc3s2)nnn1-c1ccccc1F` [YA4005, N-(Benzo[d]thiazol-2-yl)-1-(2-fluorophenyl)-5-isopropyl-1H-1,2,3-triazole-4-carboxamide], for which, in data set [1], 1 µM produced 99% inhibition and the concentration for half-maximal inhibition (IC50) turned out to be 8.8 nM. Also, the CC50 in data set [2] was more than 92 µM.
With `Cc1c(C(=O)Nc2ncc(-c3ccccc3)s2)cnn1-c1ccccc1Br` [YA6152, 1-(2-Bromophenyl)-5-methyl-N-(5-phenylthiazol-2-yl)-1H-pyrazole-4-carboxamide], the IC50 in data set [1] came out at 220 nM. Besides, in data set [2], the CC50 is more than 92 µM.
The matching figures for `Cc1ccccc1-n1nnc(C(=O)Nc2ccc3cccc(Br)c3n2)c1C` [YA6146, N-(8-Bromoquinolin-2-yl)-5-methyl-1-(o-tolyl)-1H-1,2,3-triazole-4-carboxamide]: more than 1000 nM and more than 92 µM.
As for `Cc1cccc(Cl)c1-n1nnc(C(=O)Nc2nc3ccccc3s2)c1C` [YA1068, N-(Benzo[d]thiazol-2-yl)-1-(2-chloro-6-methylphenyl)-5-methyl-1H-1,2,3-triazole-4-carboxamide], in data set [1], the inhibition at 1 µM was found to be 80% and the half-maximal inhibitory concentration (IC50) is 35 nM. Also, in data set [2], the CC50 is more than 92 µM.
For `Cc1ccccc1-n1nnc(C(=O)Nc2nc3ccccc3o2)c1C` [YA4067], in data set [1], the inhibition at 1 µM came out at 14% and the IC50 is more than 1000 nM. For the same compound, the CC50 in data set [2] was more than 92 µM.
In the case of `Cc1ccccc1-c1csc(NC(=O)c2nnn(-c3ccccc3C)c2C)n1` [YA4171], the IC50 in data set [1] was more than 1000 nM. This compound yielded a CC50 in data set [2] of more than 92 µM.
The matching figures for `Cc1c(C(=O)Nc2nc3ccccc3s2)cnn1-c1ccccc1Cl` [YA4025, N-(Benzo[d]thiazol-2-yl)-1-(2-chlorophenyl)-5-methyl-1H-pyrazole-4-carboxamide]: 0.4 nM and more than 92 µM.
For the compound `Cc1ccccc1-n1nnc(C(=O)Nc2nc(-c3ccccc3)c(-c3ccccc3)s2)c1C` [YA4133, N-(4,5-Diphenylthiazol-2-yl)-5-methyl-1-(o-tolyl)-1H-1,2,3-triazole-4-carboxamide], in data set [1], at 1 µM the inhibition was 49% and the IC50 was more than 1000 nM. For the same compound, the CC50 in data set [2] is more than 92 µM.
The matching figures for `Cc1c(C(=O)Nc2nc3ccccc3s2)nnn1-c1ccccc1C(F)(F)F` [YA6089, N-(Benzo[d]thiazol-2-yl)-5-methyl-1-(2-(trifluoromethyl)phenyl)-1H-1,2,3-triazole-4-carboxamide]: 89%, 17 nM and more than 92 µM.
For the compound `Cc1ccccc1-n1nnc(C(=O)Nc2cc(CN3CCN(C(=O)OC(C)(C)C)CC3)c3ccccc3n2)c1C` [YA6159, tert-Butyl 4-((2-(5-methyl-1-(o-tolyl)-1H-1,2,3-triazole-4-carboxamido)quinolin-4-yl)methyl)piperazine-1-carboxylate], in data set [1], the 50% inhibitory concentration (IC50) was more than 1000 nM. Besides, the CC50 in data set [2] was more than 92 µM.
The matching figures for `Cc1ccccc1C1CCC(C(=O)Nc2nc3ccccc3s2)C1` (stereo not drawn) [YA4138]: more than 1000 nM and more than 92 µM.
As to `Cc1c(C(=O)Nc2nc3ccccc3s2)nnn1-c1ccccc1` [YA6029, N-(Benzo[d]thiazol-2-yl)-5-methyl-1-phenyl-1H-1,2,3-triazole-4-carboxamide], in data set [1], the inhibition at 1 µM came out at 81% and the IC50 was determined as 7.82 nM. In data set [2], this compound returned a CC50 of more than 92 µM.
The matching figures for `Cc1ccccc1-n1nnc(C(=O)Nc2nc3ccc(Br)cc3s2)c1C` [YA4059, N-(6-Bromobenzo[d]thiazol-2-yl)-5-methyl-1-(o-tolyl)-1H-1,2,3-triazole-4-carboxamide]: 31%, more than 1000 nM and more than 92 µM.
For the compound `Cc1ccccc1-n1nnc(C(=O)Nc2ccc3cc(O)ccc3n2)c1C` [YA6079], the IC50 in data set [1] was more than 1000 nM. The compound further had a CC50 in data set [2] of more than 92 µM.
Turning to `CC(C)c1c(C(=O)Nc2nc3ccc(F)cc3s2)nnn1-c1ccccc1F` [YA6172, N-(6-Fluorobenzo[d]thiazol-2-yl)-1-(2-fluorophenyl)-5-isopropyl-1H-1,2,3-triazole-4-carboxamide], in data set [1], 1 µM produced 98% inhibition and the IC50 was found to be 7.6 nM. For the same compound, the CC50 in data set [2] was more than 92 µM.
For the compound `Cc1ccccc1-n1nnc(C(=O)Nc2nc3cc(F)ccc3s2)c1C` [YA4101, N-(5-Fluorobenzo[d]thiazol-2-yl)-5-methyl-1-(o-tolyl)-1H-1,2,3-triazole-4-carboxamide], the IC50 in data set [1] stood at 16 nM. In data set [2], this compound had a CC50 of more than 92 µM.
Turning to `Cc1ccccc1-n1nnc(C(=O)Nc2ncc(-c3ccccc3)s2)c1C` [YA4085, 5-Methyl-N-(5-phenylthiazol-2-yl)-1-(o-tolyl)-1H-1,2,3-triazole-4-carboxamide], in data set [1], at 1 µM the inhibition was 37% and the IC50 is more than 1000 nM. The same compound came in with a cytotoxic concentration (CC50) in data set [2] of more than 92 µM.
The matching figures for `COc1cccc2sc(NC(=O)c3nnn(-c4ccccc4C)c3C)nc12` [YA4061, N-(4-Methoxybenzo[d]thiazol-2-yl)-5-methyl-1-(o-tolyl)-1H-1,2,3-triazole-4-carboxamide]: 27%, more than 1000 nM and more than 92 µM.
Take `Cc1c(C(=O)Nc2nc3ccccc3s2)nnn1-c1ccc(F)cc1F` [YA1046, N-(Benzo[d]thiazol-2-yl)-1-(2,4-difluorophenyl)-5-methyl-1H-1,2,3-triazole-4-carboxamide]: in data set [1], the inhibition at 1 µM was found to be 40% and the IC50 was more than 1000 nM. This compound gave a CC50 in data set [2] of more than 92 µM.
For the compound `Cc1ccccc1-n1nnc(C(=O)Nc2ccc3ccncc3c2)c1C` [YA61691, N-(Isoquinolin-7-yl)-5-methyl-1-(o-tolyl)-1H-1,2,3-triazole-4-carboxamide], the IC50 in data set [1] is more than 1000 nM. The CC50 in data set [2] is more than 92 µM.
The matching figures for `Cc1ccccc1-n1nnc(C(=O)Nc2ccc3c(Br)cccc3n2)c1C` [YA6167, N-(5-Bromoquinolin-2-yl)-5-methyl-1-(o-tolyl)-1H-1,2,3-triazole-4-carboxamide]: more than 1000 nM and more than 92 µM.
Turning to `Cc1ccccc1-n1ncc(C(=O)Nc2nc3ccccc3s2)c1C` [YA6179, N-(Benzo[d]thiazol-2-yl)-5-methyl-1-(o-tolyl)-1H-pyrazole-4-carboxamide], in data set [1], the half-inhibitory concentration (IC50) stood at 1.4 nM. Further, the half-maximal cytotoxic concentration (CC50) in data set [2] is more than 92 µM.
As for `CC(C)(C)c1c(C(=O)Nc2nc3ccc(F)cc3s2)nnn1-c1ccccc1F` [YA6174, 5-(Tert-butyl)-N-(6-fluorobenzo[d]thiazol-2-yl)-1-(2-fluorophenyl)-1H-1,2,3-triazole-4-carboxamide], in data set [1], testing at 1 µM gave an inhibition of 40% and the IC50 was more than 1000 nM. The same compound gave a CC50 in data set [2] of more than 92 µM.
For `Cc1c(C(=O)Nc2nc3ccccc3s2)cnn1-c1ccccc1F` [YA4007, N-(Benzo[d]thiazol-2-yl)-1-(2-fluorophenyl)-5-methyl-1H-pyrazole-4-carboxamide], the IC50 in data set [1] came to 1.3 nM. In data set [2], this compound yielded a CC50 of more than 92 µM.
With `Cc1c(C(=O)Nc2nc(-c3ccccc3)cs2)cnn1-c1ccccc1Br` [YA4087, 1-(2-Bromophenyl)-5-methyl-N-(4-phenylthiazol-2-yl)-1H-pyrazole-4-carboxamide], the IC50 in data set [1] is more than 1000 nM. This compound yielded a CC50 in data set [2] of more than 92 µM.
With `Cc1ccc(-c2csc(NC(=O)c3nnn(-c4ccccc4C)c3C)n2)cc1` [YA4141], in data set [1], the IC50 was more than 1000 nM. In data set [2], this compound showed a CC50 of more than 92 µM.
The matching figures for `COc1ccccc1-n1nnc(C(=O)Nc2cnc3ccccc3n2)c1C` [YA6136, 1-(2-Methoxyphenyl)-5-methyl-N-(quinoxalin-2-yl)-1H-1,2,3-triazole-4-carboxamide]: 1.8 nM and more than 92 µM.
Consider `Cc1ccccc1-n1nnc(C(=O)Nc2nc3ccc(Cl)cc3s2)c1C` [YA4071, N-(6-Chlorobenzo[d]thiazol-2-yl)-5-methyl-1-(o-tolyl)-1H-1,2,3-triazole-4-carboxamide], for which, in data set [1], the half-maximal inhibitory concentration (IC50) stood at 67 nM. The compound further registered a CC50 in data set [2] of more than 92 µM.
The matching figures for `Cc1c(C(=O)Nc2nc3ccccc3s2)cnn1-c1c(F)cccc1F` [YA4019, N-(benzo[d]thiazol-2-yl)-1-(2,6-difluorophenyl)-5-methyl-1H-pyrazole-4-carboxamide]: 0.9 nM and more than 92 µM.
For the compound `Cc1ccccc1-n1nnc(C(=O)Nc2ccc3ncccc3n2)c1C` [YA6147, 5-Methyl-N-(1,5-naphthyridin-2-yl)-1-(o-tolyl)-1H-1,2,3-triazole-4-carboxamide], the IC50 in data set [1] is more than 1000 nM. The CC50 in data set [2] is more than 92 µM.
The matching figures for `Cc1ccccc1-n1nnc(C(=O)Nc2ccc3cccnc3c2)c1C` [YA6162, 5-Methyl-N-(quinolin-7-yl)-1-(o-tolyl)-1H-1,2,3-triazole-4-carboxamide]: more than 1000 nM and more than 92 µM.
`Cc1ccccc1-n1nnc(C(=O)Nc2nc(-c3ccccc3Cl)cs2)c1C` [YA4145]: the IC50 in data set [1] was more than 1000 nM. In addition, in data set [2], the CC50 is more than 92 µM.
